# Results published in patent US9587035B2, “Assay for benzylpiperazine and metabolites” (Randox Laboratories Limited, priority 2012, dated 2017).
# Structures can show the parent of a compound that is named as a salt.
# Tests used:
# [1] = system: polyclonal antibodies (antiserum raised to Immunogen II), detecting agent Hapten 1-HRP; assay: Biochip competitive immunoassay (antibody characterisation, cross-reactivity); format: binding, sheep; details: for % Cross-reactivity: CR based on 100% for 1-benzylpiperazine, detecting agent derived from Hapten-1, % CR = IC50 1-benzylpiperazine/IC50 CR x 100; for IC50: detecting agent derived from Hapten-1, competitive assay format
# Protocol: Pre-immunisation blood samples were collected from 16-month-old female Suffolk sheep. The immunisation mixture was prepared by adding 2 mg of immunogen prepared in PBS at a ratio of 50% lmmunogen/PBS with 50% Freund's Complete adjuvant (Sigma, Product Number—F5881) and emulsifying the mixture to prepare the final product for immunisation. On Day 0, each sheep was immunized intramuscularly with 1 ml of the mixture described above, with 2-[4-(piperazin-1-yl-methyl)phenoxy]acetic acid conjugated to a carrier protein bovine thyroglobulin (BTG) (as in example 6 above). Subsequent boosts (a total of 20 boosts) were administered intramuscularly to each sheep every 30 days. Freund's complete adjuvant (Sigma, Product Number—F5881) was used for primary immunizations and Freund's incomplete adjuvant (Sigma product Number—F5506) was used for all subsequent injections. Routine bleeds were taken between boosts to monitor the antibody titre and sensitivity, using hapten 1 conjugated to Horseradish peroxidase in a competitive ELISA, testing cross reactivity to 1-Benzylpiperazine and 4-OH benzylpiperazine.
# Once the antibody titres were assessed as meeting the required performance criteria i.e. there was no significant increase in antibody titre and a plateau had been reached in the % displacement profile, antibodies were then evaluated by competitive immunoassay. They were first immobilized on a biochip platform (9 mm×9 mm) (Randox Laboratories Ltd.), which was the vessel for the immunoreactions. The semi-automated bench top analyser Evidence Investigator was used (EV3602, Randox Laboratories Ltd., Crumlin, UK, patents-EP98307706, EP98307732, EP0902394, EP1227311, EP1434995 and EP1354623). The assay principle was based on competition for binding sites of the polyclonal antibodies between free antigen (1-Benzylpiperazine and other cross-reactants) and labelled conjugate (Hapten 1-HRP, prepared as in example 6). Assay dilutent (155 μl), calibrator/1-benzylpiperazine or potential cross-reactant (25 μl) followed by Hapten 1-HRP conjugate (120 μl) were added to the appropriate biochip. The biochips were then incubated for 30 minutes at 30° C. on a thermo-shaker set at 370 rpm. The biochips were then subjected to 2 quick wash cycles using the wash buffer provided, followed by 4×2 minute wash cycles. 250 μl of signal (1:1 luminol+peroxide, v/v) was then added to each biochip, and after 2 minutes the biochip carrier was imaged in the Evidence Investigator analyser. The system incorporates dedicated software to automatically process, report and archive the data generated (details can be found in FitzGerald, S. P. et al, Clin. Chem. 51(7); 1165-1176; 2005).
# Calibration curves were generated using the Biochip based immunoassay as described above. The IC50 was calculated from the graphs by taking 50% of the signal from the zero calibrator and reading the corresponding value on the x-axis, equivalent to the concentration of unlabelled ligand which reduces specific binding of labelled ligand by 50%. Specificity was also tested against a range of related analytes (Table 1). Cross-reactivity was calculated according to the following formula: % CR=IC50, 1-benzylpiperazine/IC50, CR×100 where % CR is the percentage cross-reactivity, IC50, 1-benzylpiperazine is the concentration of 1-benzylpiperazine that causes 50% displacement of signal and IC50, CR is the concentration of 1-benzylpiperazine/metabolites/structurally-related molecules that causes 50% displacement of signal.
# [2] = Wistar rats, cited from earlier work; for % of the dose excreted as this molecule: BZP dosed; for detectability in urine post-dosing / time of peak urinary level post-dosing: urine
# [3] = system: MDMA immunoassay; details: commercial MDMA immunoassay; cited from earlier work
# [4] = cited from earlier work
Structure (SMILES),% Cross-reactivity [1] [%],IC50 [1] [µg/mL],further results
"COc1ccccc1N1CCNCC1 [1-(2-Methoxyphenyl)piperazine diHCl, 1-(2-Methoxyphenyl)piperazine]",3.2,0.0438,–
Oc1cccc(N2CCNCC2)c1 [1-(3-Hydroxyphenyl)piperazine],1.0,0.14,–
Cc1cccc(N2CCNCC2)c1 [1-(3-Methylphenyl)piperazine],3.9,0.0359,–
FC(F)(F)c1cccc(N2CCNCC2)c1 [1-(3-Trifluoromethylphenyl)piperazine],1.9,0.0737,–
Cc1ccc(N2CCNCC2)cc1 [1-(4-Methylphenyl)piperazine],1.3,0.1077,–
"c1ccc(CN2CCNCC2)cc1 [1-Benzylpiperazine, 1-benzylpiperazine]",100.0,0.0014,"% of the dose excreted as this molecule [2]: 6.7%; detectability in urine post-dosing [2]: undetectable at 48hrs; time of peak urinary level post-dosing [2]: around 4 hrs; concentration needed for a positive result [3]: 3,000,000 ng/mL; elimination half life ([4]; in vivo): 5 to 6 h; time at which elimination is complete ([4]; in vivo): around 44 hrs; time to detection in plasma ([4]; oral dose of BZP hydrochloride): ≤ 30 min"
c1ccc(N2CCNCC2)cc1 [1-Phenylpiperazine],3.4,0.0412,–
c1cc2c(cc1CN1CCNCC1)OCO2 [1-Piperonylpiperazine],101.5,0.0014,–
"Oc1cccc(CN2CCNCC2)c1 [3-(Piperazin-1ylmethyl)phenol diHCl, 3-(Piperazin-1ylmethyl)phenol]",123.7,0.0011,% of the dose excreted as this molecule [2]: 2%; detectability in urine post-dosing [2]: detectable up to 48hrs; time of peak urinary level post-dosing [2]: around 8 hrs
"Oc1ccc(CN2CCNCC2)cc1 [4-OH Benzylpiperazine, 4-OH benzylpiperazine]",172.1,0.0008,% of the dose excreted as this molecule [2]: 25%; detectability in urine post-dosing [2]: detectable up to 48hrs; time of peak urinary level post-dosing [2]: around 8 hrs
"Cc1cccc(CN2CCNCC2)c1 [N-(3-Methylbenzyl)piperazine diHCl, N-(3-Methylbenzyl)piperazine]",52.9,0.0026,–
"Clc1cccc(N2CCNCC2)c1 [mCPP HCl, 1-(3-chlorophenyl)piperazine]",0.6,0.2333,–
